# How the values were obtained:
# [1] = target: cloned human P2Y1 receptors (Homo sapiens (Human), UniProt P47900); test: Binding Assay B: Scintillation Proximity Assay (SPA) for P2Y1 binding; details: SPA, [33P] 2MeS-ADP displacement; read-out: P2Y1 Ki (nM) using binding assay B
# How it was run: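 Scintillation proximity readout of 0.3 nM [^33P] tracer displacement from receptor membranes (~15 fmol receptor, 1.7 μg protein). Binding ran 1 h at room temperature to completion; plates were then centrifuged and aqueous phase aspirated before counting.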
# [2] = tested on: human platelet rich plasma (PRP); test: ADP induced platelet aggregation assay; details: Homo sapiens, Platelet, read-out: PA IC50 (μM) @ 10 μM ADP, platelet aggregation induced by 10 μM ADP, human PRP
# Chain of cloned human P2Y1 receptors (P47900 whole entry): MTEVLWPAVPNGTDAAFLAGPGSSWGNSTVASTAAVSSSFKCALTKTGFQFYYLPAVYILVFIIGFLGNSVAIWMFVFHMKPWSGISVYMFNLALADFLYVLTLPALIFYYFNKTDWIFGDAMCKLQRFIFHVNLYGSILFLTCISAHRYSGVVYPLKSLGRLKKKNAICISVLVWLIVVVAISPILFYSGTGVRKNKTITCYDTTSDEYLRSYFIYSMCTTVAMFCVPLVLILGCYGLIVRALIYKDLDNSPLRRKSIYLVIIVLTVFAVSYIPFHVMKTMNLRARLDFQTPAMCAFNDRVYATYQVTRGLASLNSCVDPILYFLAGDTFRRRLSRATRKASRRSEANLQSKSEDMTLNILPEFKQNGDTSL
SMILES,Ki [1] [nM],IC50 [2] [µM]
"CC(C)(C)CN1CCC2(CC1)CN(c1ccccc1NC(=O)Nc1nc3ccc(F)cc3s1)c1c(O)c(F)cc(Cl)c12 [Example 100, 1-(2-(4-Chloro-6-fluoro-7-hydroxy-1′-neopentylspiro [indoline-3,4′-piperidine]-1-yl)phenyl)-3-(6-fluorobenzo[d]thiazol-2-yl)urea]",7.9,0.2
"CC(C)(C)CN1CCC2(CC1)CN(c1ccccc1NC(=O)Nc1nc3ccc(Cl)nc3s1)c1c(O)cc(F)c(Cl)c12 [Example 101, 1-(2-(4-Chloro-5-fluoro-7-hydroxy-1′-neopentylspiro [indoline-3,4′-piperidin]-1-yl)phenyl)-3-(5-chlorothiazolo[5,4-b]pyridin-2-yl)urea]",12.2,0.9
"CC(C)(C)CN1CCC2(CC1)CN(c1ccccc1NC(=O)Nc1nc3ccc(F)nc3s1)c1c(O)cc(F)c(Cl)c12 [Example 102, 1-(2-(4-Chloro-5-fluoro-7-hydroxy-1′-neopentylspiro [indoline-3,4′-piperidin]-1-yl)phenyl)-3-(5-fluorothiazolo [5,4-b]pyridin-2-yl)urea]",12.6,0.6
"CC(C)CN1CCCC1c1ccc(NC(=O)Nc2ccccc2N2CC3(CCN(CC(C)(C)C)CC3)c3c(F)c(F)cc(O)c32)cc1 (stereo not drawn) [Example 104, 1-(2-(4,5-Difluoro-7-hydroxy-1′-neopentylspiro [indoline-3,4′-piperidine]-1-yl)phenyl)-3-(4-(1-isobutylpyrrolidin-2-yl)phenyl)urea]",17,1
"CC(C)CN1CCC(c2ccc(NC(=O)Nc3ccccc3N3CC4(CCN(CC(C)(C)C)CC4)c4c(Cl)c(F)cc(O)c43)cc2)CC1 [Example 105, 1-(2-(4-Chloro-5-fluoro-7-hydroxy-1′-neopentylspiro [indoline-3,4′-piperidine]-1-yl)phenyl)-3-(4-(1-isobutylpiperidin-4-yl)phenyl)urea]",12.7,1.1
"CC(C)CN1CCC2(CC1)CN(c1ccccc1NC(=O)Nc1ccc(OC(F)(F)F)cc1)c1c(O)ccc(C(F)(F)F)c12 [Example 106, 1-(2-(7-Hydroxy-1′-isobutyl-4-(trifluoromethyl)spiro [indoline-3,4′-piperidine]-1-yl)phenyl)-3-(4-(trifluoromethoxy)phenyl) urea]",10.6,0.1
"CC(C)N1CCC2(CC1)CN(c1ccccc1NC(=O)Nc1ccc(OC(F)(F)F)cc1)c1c(O)ccc(C(F)(F)F)c12 [Example 107, 1-(2-(7-Hydroxy-1′-isopropyl-4-(trifluoromethyl)spiro [indoline-3,4′-piperidine]-1-yl)phenyl)-3-(4-(trifluoromethoxy)phenyl) urea]",14.4,0.6
"COc1ccc2nc(NC(=O)Nc3ccccc3N3CC4(CCN(CC(C)(C)C)CC4)c4c(C(F)(F)F)ccc(O)c43)sc2c1 [Example 108, 1-(2-(7-Hydroxy-1′-neopentyl-4-(trifluoromethyl)spiro [indoline-3,4′-piperidin]-1-yl)phenyl)-3-(6-methoxybenzo [d]thiazol-2-yl)urea]",14.5,0.2
"CC(C)(C)CN1CCC2(CC1)CN(c1ccccc1NC(=O)Nc1csc(Cl)n1)c1c(O)ccc(-c3nc4cc(F)ccc4s3)c12 [Example 112, 1-(2-Chlorothiazol-4-yl)-3-(2-(4-(5-fluorobenzo[d]thiazol-2-yl)-7-hydroxy-1′-neopentylspiro[indoline-3,4′-piperidin]-1-yl)phenyl)urea]",9.5,0.2
"CC(C)(C)CN1CCC2(CC1)CN(c1ccccc1NC(=O)Nc1csc(Cl)n1)c1c(O)ccc(-c3nc4ccc(Cl)cc4s3)c12 [Example 113, 1-(2-(4-(6-Chlorobenzo[d]thiazol-2-yl)-7-hydroxy-1′-neopentylspiro[indoline-3,4′-piperidin]-1-yl)phenyl)-3-(2-chlorothiazol-4-yl)urea]",7.1,0.4
"CC(C)(C)CN1CCC2(CC1)CN(c1ccccc1NC(=O)Nc1csc(Cl)n1)c1c(O)ccc(-c3nc4ccc(F)cc4s3)c12 [Example 114, 1-(2-Chlorothiazol-4-yl)-3-(2-(4-(6-fluorobenzo[d]thiazol-2-yl)-7-hydroxy-1′-neopentylspiro[indoline-3,4′-piperidin]-1-yl)phenyl)urea]",5.6,0.1
"CC(C)(C)CN1CCC2(CC1)CN(c1ccccc1NC(=O)Nc1ccc(OC(F)(F)F)cc1)c1c(O)ccc(-c3nc4c(Cl)cccc4s3)c12 [Example 115, 1-(2-(4-(4-Chlorobenzo[d]thiazol-2-yl)-7-hydroxy-1′-neopentylspiro[indoline-3,4′-piperidin]-1-yl)phenyl)-3-(4-(trifluoromethoxy)phenyl)urea]",22.8,1
"CC(C)(C)CN1CCC2(CC1)CN(c1ccccc1NC(=O)Nc1nc3ccc(F)cc3s1)c1c(O)ccc(-c3nc4c(Cl)cccc4s3)c12 [Example 116, 1-(2-(4-(4-Chlorobenzo[d]thiazol-2-yl)-7-hydroxy-1′-neopentylspiro[indoline-3,4′-piperidin]-1-yl)phenyl)-3-(6-fluorobenzo[b]thiazol-2-yl)urea]",36.2,0.6
"CC(C)(C)CN1CCC2(CC1)CN(c1ccccc1NC(=O)Nc1nc3ccc(Cl)nc3s1)c1c(O)ccc(-c3nc4c(Cl)cccc4s3)c12 [Example 117, 1-(2-(4-(4-Chlorobenzo[d]thiazol-2-yl)-7-hydroxy-1′-neopentylspiro[indoline-3,4′-piperidin]-1-yl)phenyl)-3-(5-chlorothiazolo[5,4-b]pyridin-2-yl)urea]",29.6,0.6
"CC(C)(C)CN1CCC2(CC1)CN(c1ccccc1NC(=O)Nc1csc(Cl)n1)c1c(O)ccc(-c3nc4c(Cl)cccc4s3)c12 [Example 118, 1-(2-(4-(4-Chlorobenzo[d]thiazol-2-yl)-7-hydroxy-1′-neopentylspiro[indoline-3,4′-piperidin]-1-yl)phenyl)-3-(2-chlorothiazol-4-yl)urea]",15.5,0.3
"CC(C)(C)CN1CCC2(CC1)CN(c1ccccc1NC(=O)Nc1csc(Cl)n1)c1c(O)ccc(-c3nc4ccc(Br)cc4s3)c12 [Example 119, 1-(2-(4-(6-Bromobenzo[d]thiazol-2-yl)-7-hydroxy-1′-neopentylspiro[indoline-3,4′-piperidin]-1-yl)phenyl)-3-(2-chlorothiazol-4-yl)urea]",18.4,0.3
"CC(C)(C)CN1CCC2(CC1)CN(c1ccccc1NC(=O)Nc1csc(C(F)(F)F)n1)c1c(O)ccc(-c3nc4cc(Cl)ccc4s3)c12 [Example 120, 1-(2-(4-(5-Chlorobenzo[d]thiazol-2-yl)-7-hydroxy-1′-neopentylspiro[indoline-3,4′-piperidin]-1-yl)phenyl)-3-(2-(trifluoromethyl)thiazol-4-yl)urea]",28.5,0.6
"CC(C)(C)CN1CCC2(CC1)CN(c1ccccc1NC(=O)Nc1ccc(OC(F)(F)F)cc1)c1c(O)ccc(-c3nc4ccc(Br)cc4s3)c12 [Example 121, 1-(2-(4-(6-Bromobenzo[d]thiazol-2-yl)-7-hydroxy-1′-neopentylspiro[indoline-3,4′-piperidin]-1-yl)phenyl)-3-(4-(trifluoromethoxy)phenyl)urea]",45.6,0.4
